Patent publication US20240277620A1, “MIXED SOLVENTS FOR SPRAY DRYING FOR PREPARATION OF AMORPHOUS SOLID DISPERSIONS” (Lonza Bend Inc., priority 2021, published 2024)
“And” between values parts separate entries of the source, which are not always exact repeats. Equal values may be shown once.

Assay: Determination of saturation concentration of drug in solvent (TGA of filtered saturated solution)

Cc1cn(-c2cc(NC(=O)c3ccc(C)c(Nc4nccc(-c5cccnc5)n4)c3)cc(C(F)(F)F)c2)cn1 [Nilotinib, nilotinib]
Concentration (EtOAc:EtOH 0:100, 25° C.): 1690 µg/mL
Concentration (wt %) (EtOAc:EtOH 0:100, 25° C.): 0.214 wt %
Concentration (EtOAc:EtOH 15:85, 25° C.): 2380 µg/mL
Concentration (wt %) (EtOAc:EtOH 15:85, 25° C.): 0.30 wt %
Concentration (EtOAc:EtOH 40:60, 25° C.): 3400 µg/mL
Concentration (wt %) (EtOAc:EtOH 40:60, 25° C.): 0.408 wt %
Concentration (EtOAc:EtOH 55:45, 25° C.): 4690 µg/mL
Concentration (wt %) (EtOAc:EtOH 55:45, 25° C.): 0.518 wt %
Concentration (EtOAc:EtOH 70:30, 25° C.): 3390 µg/mL
Concentration (wt %) (EtOAc:EtOH 70:30, 25° C.): 0.392 wt %
Concentration (EtOAc:EtOH 85:15, 25° C.): 2030 µg/mL
Concentration (wt %) (EtOAc:EtOH 85:15, 25° C.): 0.230 wt %
Concentration (EtOAc:EtOH 100:0, 25° C.): 690 µg/mL
Concentration (wt %) (EtOAc:EtOH 100:0, 25° C.): 0.076 wt %
Solubility (wt %) (MeOAc/MeOH, MeOH 0 wt %): 0.091 wt %
Solubility (wt %) (MeOAc/MeOH, MeOH 15 wt %): 0.496 wt %
Solubility (wt %) (MeOAc/MeOH, MeOH 30 wt %): 0.763 wt %
Solubility (wt %) (MeOAc/MeOH, MeOH 45 wt %): 0.962 wt %
Solubility (wt %) (MeOAc/MeOH, MeOH 60 wt %): 0.868 wt %
Solubility (wt %) (MeOAc/MeOH, MeOH 85 wt %): 0.486 wt %
Solubility (wt %) (MeOAc/MeOH, MeOH 100 wt %): 0.371 wt %
Concentration (MeOAc:MeOH 0:100, 25° C.): 2940 µg/mL
Concentration (wt %) (MeOAc:MeOH 0:100, 25° C.): 0.371 wt %
Concentration (MeOAc:MeOH 15:85, 25° C.): 3940 µg/mL
Concentration (wt %) (MeOAc:MeOH 15:85, 25° C.): 0.486 wt %
Concentration (MeOAc:MeOH 40:60, 25° C.): 7320 µg/mL
Concentration (wt %) (MeOAc:MeOH 40:60, 25° C.): 0.868 wt %
Concentration (MeOAc:MeOH 55:45, 25° C.): 8310 µg/mL
Concentration (wt %) (MeOAc:MeOH 55:45, 25° C.): 0.961 wt %
Concentration (MeOAc:MeOH 70:30, 25° C.): 6760 µg/mL
Concentration (wt %) (MeOAc:MeOH 70:30, 25° C.): 0.763 wt %
Concentration (MeOAc:MeOH 85:15, 25° C.): 4510 µg/mL
Concentration (wt %) (MeOAc:MeOH 85:15, 25° C.): 0.496 wt %
Concentration (MeOAc:MeOH 100:0, 25° C.): 850 µg/mL
Concentration (wt %) (MeOAc:MeOH 100:0, 25° C.): 0.091 wt %

O=C(O)c1cc(/N=N/c2ccc(S(=O)(=O)Nc3ccccn3)cc2)ccc1O [Sulfasalazine, sulfasalazine]
Solubility (wt %) (EtOAc/MeOH, MeOH 0 wt %): 0.065 wt % and 0.091 wt %
Solubility (wt %) (EtOAc/MeOH, MeOH 15 wt %): 0.500 wt %
Solubility (wt %) (EtOAc/MeOH, MeOH 20 wt %): 0.430 wt %
Solubility (wt %) (EtOAc/MeOH, MeOH 30 wt %): 0.847 wt %
Solubility (wt %) (EtOAc/MeOH, MeOH 35 wt %): 0.593 wt %
Solubility (wt %) (EtOAc/MeOH, MeOH 45 wt %): 1.028 wt %
Solubility (wt %) (EtOAc/MeOH, MeOH 50 wt %): 0.497 wt %
Solubility (wt %) (EtOAc/MeOH, MeOH 60 wt %): 0.878 wt %
Solubility (wt %) (EtOAc/MeOH, MeOH 65 wt %): 0.481 wt %
Solubility (wt %) (EtOAc/MeOH, MeOH 80 wt %): 0.370 wt %
Solubility (wt %) (EtOAc/MeOH, MeOH 85 wt %): 0.532 wt %
Solubility (wt %) (EtOAc/MeOH, MeOH 100 wt %): 0.153 wt % and 0.371 wt %
Concentration (EtOAc:EtOH 0:100, 25° C.): 1030 µg/mL
Concentration (wt %) (EtOAc:EtOH 0:100, 25° C.): 0.130 wt %
Concentration (EtOAc:EtOH 15:85, 25° C.): 1740 µg/mL
Concentration (wt %) (EtOAc:EtOH 15:85, 25° C.): 0.22 wt %
Concentration (EtOAc:EtOH 40:60, 25° C.): 2670 µg/mL
Concentration (wt %) (EtOAc:EtOH 40:60, 25° C.): 0.321 wt %
Concentration (EtOAc:EtOH 55:45, 25° C.): 2890 µg/mL
Concentration (wt %) (EtOAc:EtOH 55:45, 25° C.): 0.341 wt %
Concentration (EtOAc:EtOH 70:30, 25° C.): 3200 µg/mL
Concentration (wt %) (EtOAc:EtOH 70:30, 25° C.): 0.370 wt %
Concentration (EtOAc:EtOH 85:15, 25° C.): 2170 µg/mL
Concentration (wt %) (EtOAc:EtOH 85:15, 25° C.): 0.246 wt %
Concentration (EtOAc:EtOH 100:0, 25° C.): 360 µg/mL
Concentration (wt %) (EtOAc:EtOH 100:0, 25° C.): 0.040 wt %
Solubility (wt %) (MeOAc/MeOH, MeOH 0 wt %): 0.065 wt %
Solubility (wt %) (MeOAc/MeOH, MeOH 20 wt %): 0.403 wt %
Solubility (wt %) (MeOAc/MeOH, MeOH 35 wt %): 0.482 wt %
Solubility (wt %) (MeOAc/MeOH, MeOH 50 wt %): 0.426 wt %
Solubility (wt %) (MeOAc/MeOH, MeOH 65 wt %): 0.341 wt %
Solubility (wt %) (MeOAc/MeOH, MeOH 80 wt %): 0.250 wt %
Solubility (wt %) (MeOAc/MeOH, MeOH 100 wt %): 0.153 wt %
Concentration (MeOAc:MeOH 0:100, 25° C.): 1210 µg/mL
Concentration (wt %) (MeOAc:MeOH 0:100, 25° C.): 0.153 wt %
Concentration (MeOAc:MeOH 20:80, 25° C.): 2220 µg/mL
Concentration (wt %) (MeOAc:MeOH 20:80, 25° C.): 0.250 wt %
Concentration (MeOAc:MeOH 35:65, 25° C.): 2850 µg/mL
Concentration (wt %) (MeOAc:MeOH 35:65, 25° C.): 0.341 wt %
Concentration (MeOAc:MeOH 50:50, 25° C.): 3650 µg/mL
Concentration (wt %) (MeOAc:MeOH 50:50, 25° C.): 0.426 wt %
Concentration (MeOAc:MeOH 65:35, 25° C.): 4230 µg/mL
Concentration (wt %) (MeOAc:MeOH 65:35, 25° C.): 0.482 wt %
Concentration (MeOAc:MeOH 80:20, 25° C.): 3630 µg/mL
Concentration (wt %) (MeOAc:MeOH 80:20, 25° C.): 0.403 wt %
Concentration (MeOAc:MeOH 100:0, 25° C.): 610 µg/mL
Concentration (wt %) (MeOAc:MeOH 100:0, 25° C.): 0.065 wt %
